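GI50 marks 50% less growth. TGI is the concentration that stops growth completely.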
Tests used:
Assay in all cases: NCI anticancer screen, dose series, 384-well format
OVCAR-8 ovarian = tested on: OVCAR-8 ovarian
SN12C renal = tested on: SN12C renal
SK-MEL-5 melanoma = tested on: SK-MEL-5 melanoma
UACC-257 melanoma = tested on: UACC-257 melanoma
KM12 colon = tested on: KM12 colon
SF-268 CNS = tested on: SF-268 CNS
SK-MEL-28 melanoma = tested on: SK-MEL-28 melanoma
A549 NSCLC = tested on: A549 NSCLC
HCT-15 colon = tested on: HCT-15 colon
OVCAR-4 ovarian = tested on: OVCAR-4 ovarian
NCI-H322M lung = tested on: NCI-H322M lung
T-47D breast = tested on: T-47D breast
U251 glioblastoma = tested on: U251 glioblastoma
PC-3 prostate = tested on: PC-3 prostate
HOP-92 NSCLC = tested on: HOP-92 NSCLC
MCF7 breast = tested on: MCF7 breast
MDA-MB-231 breast = tested on: MDA-MB-231 breast
SNB-75 CNS = tested on: SNB-75 CNS
M14 melanoma = tested on: M14 melanoma
SW-620 colon = tested on: SW-620 colon
COLO 205 colon = tested on: COLO 205 colon
SNB-19 CNS = tested on: SNB-19 CNS
K-562 leukemia = tested on: K-562 leukemia
A498 renal = tested on: A498 renal
SF-539 CNS = tested on: SF-539 CNS
SK-OV-3 ovarian = tested on: SK-OV-3 ovarian
SK-MEL-2 melanoma = tested on: SK-MEL-2 melanoma
HS 578T breast = tested on: HS 578T breast
NCI-H226 lung = tested on: NCI-H226 lung
DU-145 prostate = tested on: DU-145 prostate
RXF 393 renal = tested on: RXF 393 renal
HCT-116 colon = tested on: HCT-116 colon
ACHN renal = tested on: ACHN renal
BT-549 breast = tested on: BT-549 breast
OVCAR-3 ovarian = tested on: OVCAR-3 ovarian
OVCAR-5 ovarian = tested on: OVCAR-5 ovarian
HL-60(TB) leukemia = tested on: HL-60(TB) leukemia
MALME-3M melanoma = tested on: MALME-3M melanoma
TK-10 renal = tested on: TK-10 renal
HOP-62 NSCLC = tested on: HOP-62 NSCLC
NCI-H522 lung = tested on: NCI-H522 lung
SF-295 CNS = tested on: SF-295 CNS
MDA-MB-468 breast = tested on: MDA-MB-468 breast
EKVX NSCLC = tested on: EKVX NSCLC
MOLT-4 leukemia = tested on: MOLT-4 leukemia
MDA-MB-435 melanoma = tested on: MDA-MB-435 melanoma
CAKI-1 renal = tested on: CAKI-1 renal
IGROV1 ovarian = tested on: IGROV1 ovarian
SR leukemia = tested on: SR leukemia
786-0 renal = tested on: 786-0 renal
NCI-H23 lung = tested on: NCI-H23 lung
NCI-H460 NSCLC = tested on: NCI-H460 NSCLC
UO-31 renal = tested on: UO-31 renal
UACC-62 melanoma = tested on: UACC-62 melanoma
HT29 colon = tested on: HT29 colon

COc1cc(F)c(F)c(Nc2ccc(I)cc2F)c1NS(=O)(=O)C1(CC(O)CO)CC1 (stereo not given)
GI50 (OVCAR-8 ovarian): 23.1 µM | TGI (OVCAR-8 ovarian): 58.3 µM | GI50 (SN12C renal): 16.9 µM | TGI (SN12C renal): 35.3 µM | GI50 (SK-MEL-5 melanoma): 7.62 µM | TGI (SK-MEL-5 melanoma): 20.5 µM | GI50 (UACC-257 melanoma): 4.81 µM | TGI (UACC-257 melanoma): 18.1 µM | GI50 (KM12 colon): 16.1 µM | TGI (KM12 colon): 30 µM | GI50 (SF-268 CNS): 19.7 µM | TGI (SF-268 CNS): 39.5 µM | GI50 (SK-MEL-28 melanoma): 3.18 µM | TGI (SK-MEL-28 melanoma): 13.3 µM | GI50 (A549 NSCLC): 20 µM | TGI (A549 NSCLC): 55 µM | GI50 (HCT-15 colon): 20.5 µM | TGI (HCT-15 colon): 48.9 µM | GI50 (OVCAR-4 ovarian): 19.8 µM | TGI (OVCAR-4 ovarian): 70 µM | GI50 (NCI-H322M lung): 26 µM | TGI (NCI-H322M lung): 59.3 µM | GI50 (T-47D breast): 21.2 µM | TGI (T-47D breast): 81.6 µM | GI50 (U251 glioblastoma): 16.6 µM | TGI (U251 glioblastoma): 34.3 µM | GI50 (PC-3 prostate): 16.3 µM | TGI (PC-3 prostate): 30.3 µM | GI50 (HOP-92 NSCLC): 14.7 µM | TGI (HOP-92 NSCLC): 28.6 µM | GI50 (MCF7 breast): 14.8 µM | TGI (MCF7 breast): 30.4 µM | GI50 (MDA-MB-231 breast): 13.9 µM | TGI (MDA-MB-231 breast): 36.3 µM | GI50 (SNB-75 CNS): 15 µM | TGI (SNB-75 CNS): 31.4 µM | GI50 (M14 melanoma): 3.22 µM | TGI (M14 melanoma): 12.5 µM | GI50 (SW-620 colon): 15.6 µM | TGI (SW-620 colon): 41.3 µM | GI50 (COLO 205 colon): 6.9 µM | TGI (COLO 205 colon): 24.1 µM | GI50 (SNB-19 CNS): 22.3 µM | TGI (SNB-19 CNS): 62.9 µM | GI50 (K-562 leukemia): 14.3 µM | TGI (K-562 leukemia): 27.7 µM | GI50 (A498 renal): 16.1 µM | TGI (A498 renal): 31 µM | GI50 (SF-539 CNS): 15 µM | TGI (SF-539 CNS): 29.5 µM | GI50 (SK-OV-3 ovarian): 21.8 µM | TGI (SK-OV-3 ovarian): 56.9 µM | GI50 (SK-MEL-2 melanoma): 12.9 µM | TGI (SK-MEL-2 melanoma): 25.6 µM | GI50 (HS 578T breast): 14.8 µM | TGI (HS 578T breast): 28.1 µM | GI50 (NCI-H226 lung): 14.6 µM | TGI (NCI-H226 lung): 31.9 µM | GI50 (DU-145 prostate): 18.1 µM | TGI (DU-145 prostate): 37.4 µM | GI50 (RXF 393 renal): 13.4 µM | TGI (RXF 393 renal): 26.9 µM | GI50 (HCT-116 colon): 14.7 µM | TGI (HCT-116 colon): 28.7 µM | GI50 (ACHN renal): 17.1 µM | TGI (ACHN renal): 33.9 µM | GI50 (BT-549 breast): 14.1 µM | TGI (BT-549 breast): 27.2 µM | GI50 (OVCAR-3 ovarian): 13.9 µM | TGI (OVCAR-3 ovarian): 27.1 µM | GI50 (OVCAR-5 ovarian): 18.2 µM | TGI (OVCAR-5 ovarian): 41 µM | GI50 (HL-60(TB) leukemia): 6.51 µM | TGI (HL-60(TB) leukemia): 19.4 µM | GI50 (MALME-3M melanoma): 2.12 µM | TGI (MALME-3M melanoma): 6.94 µM | GI50 (TK-10 renal): 20.6 µM | TGI (TK-10 renal): 53.8 µM | GI50 (HOP-62 NSCLC): 14.2 µM | TGI (HOP-62 NSCLC): 29.1 µM | GI50 (NCI-H522 lung): 15.4 µM | TGI (NCI-H522 lung): 29.4 µM | GI50 (SF-295 CNS): 16.1 µM | TGI (SF-295 CNS): 30.4 µM | GI50 (MDA-MB-468 breast): 13.8 µM | TGI (MDA-MB-468 breast): 32.6 µM | GI50 (EKVX NSCLC): 19.5 µM | TGI (EKVX NSCLC): 44.4 µM | GI50 (MOLT-4 leukemia): 14.1 µM | TGI (MOLT-4 leukemia): 27.1 µM | GI50 (MDA-MB-435 melanoma): 6.29 µM | TGI (MDA-MB-435 melanoma): 20.1 µM | GI50 (CAKI-1 renal): 16 µM | TGI (CAKI-1 renal): 70.1 µM | GI50 (IGROV1 ovarian): 14.5 µM | TGI (IGROV1 ovarian): 31.5 µM | GI50 (SR leukemia): 14.5 µM | TGI (SR leukemia): 27.6 µM | GI50 ([…]-0 renal): 16.9 µM | TGI (786-0 renal): 31.7 µM | GI50 (NCI-H23 lung): 13.7 µM | TGI (NCI-H23 lung): 32.4 µM | GI50 (NCI-H460 NSCLC): 16.2 µM | TGI (NCI-H460 NSCLC): 30.3 µM | GI50 (UO-31 renal): 13.4 µM | TGI (UO-31 renal): 32.2 µM | GI50 (UACC-62 melanoma): 3.82 µM | TGI (UACC-62 melanoma): 14 µM | GI50 (HT29 colon): 10.4 µM | TGI (HT29 colon): 22.5 µM

— PubChem BioAssay (NCI)
